Test results published in patent publication US20090246250A1, “COATING COMPOSITIONS HAVING IMPROVED PERFORMANCE” (priority 2008, published 2009).
Square brackets hold non-standard residues; d marks the D form. Ends that are not written are not given here. AEEA = NCCOCCOCC(=O)O

Experiments:
[1] = Vancomycin loading onto coated titanium bead (HCl elution, HPLC); format: binding; conditions: peptide/polymer + vancomycin mixture 30 mins 20° C., PBS washes, 100 mM HCl eluate by HPLC
Protocol: The experimental procedure used for the embodiments described above was as follows. […] All three components were mixed and then applied to the metal bead. […] All three components were mixed and then applied to the metal bead. […] The mixtures were applied to the metal beads and incubated for 30 mins at 20° C. with 700 rpm shaking. The beads were washed three times with 350 ul PBS. Beads were analyzed as follows: 200 ul of 100 mM HCl was added to each bead and incubated for 30 mins at 20° C. with 1,000 rpm shaking. The eluate from each bead was analyzed by HPLC using Phenomenex Luna 3 um column, 50×4.60 mm. Output was compared to a standard curve for vancomycin to determine the amount of vancomycin retained onto the metal bead.

[2] = tested on: Staphylococcus aureus strain MZ100; assay: Tibia pin assay: coated titanium pins with vancomycin, bacterial cfu count; format: cell-based; parameters: key: —: “-” means no cfus; “many” means too many cfus to count, as they converge into one spot; conditions: 3 hours 37° C.
Source text: In this assay, titanium pins were used as a model for tibia pins. Briefly, sterile pins were first coated with biofunctional composition (“SEQ ID NO:124-linker-SEQ ID NO:122”) comprising a substrate-binding peptide having binding specificity for vancomycin (“SEQ ID NO:124”) linked to a substrate-binding peptide having binding specificity for metal (“SEQ ID NO:122”), or a composition of the invention formed from compound comprising the biofunctional composition covalently coupled to fatty acid. The respective coatings also include vancomycin bound thereto. The coated pins were then placed in a silicone tube containing liquid bacterial growth medium and inoculated with bacteria. After incubation, the pins were removed, and then the liquid growth medium was serially diluted. The serial dilutions were inoculated onto bacterial culture plates, the plates were incubated, and counted on the plates were bacterial colonies.
In this assay, test samples (biofunctional composition (Table 6, “BC”) or compositions 133, 134, 135, 136 139) each were used to coat a pin by incubating the test sample (in a range of from about 0.8 mM to about 1 mM) with 2.5 μl of a 10 mM vancomycin solution and PBS to a final volume of 250 μl in a microtube (3 pins per tube) for 60 minutes at room temperature with occasional agitation. In a piece of silicone tubing (1.5 mm inner diameter, 50 mm long), added is tryptic soy broth+0.2% glucose, the coated pin, and 10^3 colony forming units (cfu) of Staphylococcus aureus strain MZ100 in either a 20 μl inoculum, 40 μl inoculum, or 60 μl inoculum. The tubing is clamped closed, and the tubing is incubated for 37° C. for 3 hours. After 3 hours, serial dilutions (1:10, 1:100, 1:1000) were made of the culture media from each tubing, and 10 μl of the undiluted culture medium and of each dilution were spotted onto the bacterial culture plate. The bacterial culture plate was incubated overnight at 37° C., and then the cfus were counted. The results, a composite of different assay runs, are shown in Table 6 (“-” means no cfus; “many” means too many cfus to count, as they converge into one spot; “NT” means not tested).

| Substance | Vancomycin Load [1] | cfu 1:10 ([2]; inoculum volume 20 μl) | cfu 1:100 ([2]; inoculum volume 20 μl) | cfu 1:1000 ([2]; inoculum volume 20 μl) | cfu undiluted ([2]; inoculum volume 20 μl) | cfu 1:10 ([2]; inoculum volume 40 μl) [cfu] | cfu 1:100 ([2]; inoculum volume 40 μl) [cfu] | cfu 1:1000 ([2]; inoculum volume 40 μl) | cfu undiluted ([2]; inoculum volume 40 μl) | cfu 1:10 ([2]; inoculum volume 60 μl) [cfu] | cfu 1:100 ([2]; inoculum volume 60 μl) [cfu] | cfu 1:1000 ([2]; inoculum volume 60 μl) | cfu undiluted ([2]; inoculum volume 60 μl) |
| --- | --- | --- | --- | --- | --- | --- | --- | --- | --- | --- | --- | --- | --- |
| MA-AHx-SSCLIDIYGVCHN FDAY-miniPeg-miniPeg-YFRAFRKFVKPFKRAFKGSSK(Biotin) [SEQ ID NO:165] | 1,700 pmol/cm2 |  |  |  |  |  |  |  |  |  |  |  |  |
| SSSCLIDMYGVCHNFDGAYDSSRG [Compound 134, AUD-AUD-AUD-AUD-SEQ ID NO:124-linker-SEQ ID NO:122] |  | — | — | — | — | 6 | 1 | — | many | 17 | 5 | — | many |
| SSSCLIDMYGVCHNFDGAYDSSRG-miniPeg-miniPeg-SSHRTNHKKNNPKKKNKTRGSSGK (SSSCLIDMYGVCHNFDGAYDSSRG[AEEA][AEEA]SSHRTNHKKNNPKKKNKTRGSSGK; not fully specified (bridges); printed as SSSCLIDMYGVCHNFDGAYDSSRG-miniPeg-miniPeg-SSHRTNHKKNNPKKKNKTRGSSGK; cysteine pairing not given here) [SEQ ID NO:163] | 54 pmol/cm2 |  |  |  |  |  |  |  |  |  |  |  |  |
